For assay [1], the target named is Human norepinephrine transporter (NET) (Homo sapiens (Human), UniProt P23975). In words: Binding Assay to Human Norepinephrine Transporter (NET). To be noted: Table 2, dual compounds; human NET enriched membranes, 5 nM [3H]-Nisoxetin; read-out: Ki(nM) NET Hum. The method in brief:
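hNET-enriched membranes (5 μg) incubated with 5 nM [3H]-nisoxetine in Tris pH 7.4 containing 120 mM NaCl and 5 mM KCl, with compound at five concentrations, 60 min at 4 °C. Non-specific binding with 10 μM desipramine; filtration and scintillation counting.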

Assay [2] deals with Human α2δ-1 subunit of Cav2.2 calcium channel (Homo sapiens (Human), UniProt P54289). The assay can be described thus: Binding Assay to Human α2δ-1 Subunit of Cav2.2 Calcium Channel. To be noted: human α2δ-1 enriched membranes, 15 nM [3H]-Gabapentin, read-out: Ki(nM) alpha2delta Hum. The gist of the method:
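Radioligand filtration binding at the α2δ-1 subunit, test compound at five concentrations; nonspecific binding defined with 10 μM pregabalin. Incubated 60 min at 27 °C, stopped by GF/C filtration (0.5% PEI presoaked) with ice-cold 50 mM Tris-HCl pH 7.4 washes; bound radioactivity counted by scintillation.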

Molecules are shown by their SMILES. Like-named read-outs stand apart in the source and are kept apart here.

Sequence of Human α2δ-1 subunit of Cav2.2 calcium channel (P54289 25-1103): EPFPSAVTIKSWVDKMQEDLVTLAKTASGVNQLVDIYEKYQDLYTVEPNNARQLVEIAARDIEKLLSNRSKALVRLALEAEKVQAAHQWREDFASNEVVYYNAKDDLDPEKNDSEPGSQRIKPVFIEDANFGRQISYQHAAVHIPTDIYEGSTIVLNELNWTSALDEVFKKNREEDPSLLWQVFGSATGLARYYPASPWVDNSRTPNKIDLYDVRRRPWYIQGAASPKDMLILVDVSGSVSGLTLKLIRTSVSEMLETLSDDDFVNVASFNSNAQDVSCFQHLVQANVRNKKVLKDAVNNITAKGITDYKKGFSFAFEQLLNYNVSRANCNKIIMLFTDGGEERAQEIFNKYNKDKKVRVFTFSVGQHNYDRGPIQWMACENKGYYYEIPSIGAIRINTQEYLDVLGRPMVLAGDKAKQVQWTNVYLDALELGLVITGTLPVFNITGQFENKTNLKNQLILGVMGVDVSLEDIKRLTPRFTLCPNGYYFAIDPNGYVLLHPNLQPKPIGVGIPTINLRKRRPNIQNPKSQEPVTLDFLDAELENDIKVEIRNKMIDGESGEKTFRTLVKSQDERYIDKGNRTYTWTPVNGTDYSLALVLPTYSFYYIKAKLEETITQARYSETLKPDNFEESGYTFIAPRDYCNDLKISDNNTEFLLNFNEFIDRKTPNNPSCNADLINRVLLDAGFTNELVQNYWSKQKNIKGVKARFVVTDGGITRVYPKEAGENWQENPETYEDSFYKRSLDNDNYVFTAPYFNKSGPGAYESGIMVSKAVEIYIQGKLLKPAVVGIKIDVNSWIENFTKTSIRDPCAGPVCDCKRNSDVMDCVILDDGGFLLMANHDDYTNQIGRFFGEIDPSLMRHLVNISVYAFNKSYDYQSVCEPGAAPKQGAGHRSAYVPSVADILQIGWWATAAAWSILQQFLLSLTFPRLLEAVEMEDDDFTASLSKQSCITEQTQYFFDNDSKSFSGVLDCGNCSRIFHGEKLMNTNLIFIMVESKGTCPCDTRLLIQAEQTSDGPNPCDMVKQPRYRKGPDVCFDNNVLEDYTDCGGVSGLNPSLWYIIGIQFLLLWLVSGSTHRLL
Sequence of Human norepinephrine transporter (NET) (P23975 whole entry): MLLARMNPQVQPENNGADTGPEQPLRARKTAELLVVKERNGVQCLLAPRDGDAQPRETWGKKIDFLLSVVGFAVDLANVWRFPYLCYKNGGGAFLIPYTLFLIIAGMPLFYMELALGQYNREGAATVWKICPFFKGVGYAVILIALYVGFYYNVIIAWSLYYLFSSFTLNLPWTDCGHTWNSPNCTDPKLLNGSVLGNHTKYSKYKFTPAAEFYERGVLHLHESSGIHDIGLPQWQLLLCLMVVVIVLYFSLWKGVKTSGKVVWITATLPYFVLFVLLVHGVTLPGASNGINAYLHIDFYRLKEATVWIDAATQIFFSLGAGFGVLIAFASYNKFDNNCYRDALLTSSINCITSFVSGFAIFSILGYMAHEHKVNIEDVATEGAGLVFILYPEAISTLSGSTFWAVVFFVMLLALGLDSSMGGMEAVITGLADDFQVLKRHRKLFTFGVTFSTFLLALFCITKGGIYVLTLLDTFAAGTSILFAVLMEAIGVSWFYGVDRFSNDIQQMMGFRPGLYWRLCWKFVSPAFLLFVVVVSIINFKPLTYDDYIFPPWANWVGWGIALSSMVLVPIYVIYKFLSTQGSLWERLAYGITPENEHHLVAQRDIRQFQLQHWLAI

For `CNCC[C@H](Oc1ccc(CN2CCCn3nc(OC)cc3C2=O)c(C)c1)c1cccs1` [Example 134, (S)-2-methoxy-5-(2-methyl-4-(3-(methylamino)-1-(thiophen-2-yl)propoxy)benzyl)-5,6,7,8-tetrahydro-4H-pyrazolo[1,5-a][1,4]diazepin-4-one], the Ki is less than 100 nM in assay [1]; less than 100 nM in assay [2] (Table 1); less than 100 nM in assay [2] (Table 2, dual compounds).

For the compound `CNCC[C@H](Oc1ccc(CN2CCN(C)c3ncccc3C2=O)c(F)c1)c1cccc(F)c1` [Example 136, (S)-4-(2-fluoro-4-(1-(3-fluorophenyl)-3-(methylamino)propoxy)benzyl)-1-methyl-1,2,3,4-tetrahydro-5H-pyrido[2,3-e][1,4]diazepin-5-one], the Ki in assay [1] is less than 100 nM; in assay [2] (Table 1) it was less than 100 nM; in assay [2] (Table 2, dual compounds) it was less than 100 nM.

On to `CNCC[C@H](Oc1ccc(CN2CCN(C)c3nc(N)ccc3C2=O)c(F)c1)c1ccccc1` [Example 137, (S)-8-amino-4-(2-fluoro-4-(3-(methylamino)-1-phenylpropoxy)benzyl)-1-methyl-1,2,3,4-tetrahydro-5H-pyrido[2,3-e][1,4]diazepin-5-one], for which the Ki in assay [1] was less than 100 nM; in assay [2] (Table 1) it was 100 to 500 nM; in assay [2] (Table 2, dual compounds), 100 to 500 nM.

Take `CNCC[C@H](Oc1ccc(CN2CCN(C)c3nc(N)ccc3C2=O)c(Cl)c1)c1ccccc1` [Example 138, (S)-8-amino-4-(2-chloro-4-(3-(methylamino)-1-phenylpropoxy)benzyl)-1-methyl-1,2,3,4-tetrahydro-5H-pyrido[2,3-e][1,4]diazepin-5-one]: the Ki in assay [1] is less than 100 nM; in assay [2] (Table 1), less than 100 nM; in assay [2] (Table 2, dual compounds), less than 100 nM.

As to `CNCC[C@H](Oc1ccc(CN2CCCn3nc(C)cc3C2=O)c(F)c1)c1ccccc1` [Example 139, (S)-5-(2-fluoro-4-(3-(methylamino)-1-phenylpropoxy)benzyl)-2-methyl-5,6,7,8-tetrahydro-4H-pyrazolo[1,5-a][1,4]diazepin-4-one], the Ki was less than 100 nM in assay [1]; 100 to 500 nM in assay [2] (Table 1); 100 to 500 nM in assay [2] (Table 2, dual compounds).

Regarding `CNCC[C@H](Oc1ccc(CN2CCN(C)c3cnc(OC)cc3C2=O)c(F)c1)c1ccccc1` [Example 140, (S)-4-(2-fluoro-4-(3-(methylamino)-1-phenylpropoxy)benzyl)-7-methoxy-1-methyl-1,2,3,4-tetrahydro-5H-pyrido[3,4-e][1,4]diazepin-5-one], the Ki was less than 100 nM in assay [1]; less than 100 nM in assay [2] (Table 1); less than 100 nM in assay [2] (Table 2, dual compounds).

As to `CNCC[C@H](Oc1ccc(CN2CCN(C)c3ncccc3C2=O)c(Cl)c1)c1ccccc1` [Example 141, (S)-(2-chloro-4-(3-(methylamino)-1-phenylpropoxy)benzyl)-1-methyl-1,2,3,4-telrahydro-5H-pyrido[2,3-e][1,4]diazepin-5-one], the Ki is less than 100 nM in assay [1]; less than 100 nM in assay [2] (Table 1); less than 100 nM in assay [2] (Table 2, dual compounds).

With `CNCC[C@H](Oc1ccc(CN2CCN(C)c3nc(O)ccc3C2=O)c(F)c1)c1ccccc1` [Example 142, (S)-4-(2-fluoro-4-(3-(methylamino)-1-phenylpropoxy)benzyl)-8-hydroxy-1-methyl-1,2,3,4-tetrahydro-5H-pyrido[2,3-e][1,4]diazepin-5-one], the Ki in assay [1] is less than 100 nM; in assay [2] (Table 1), more than 3000 nM; in assay [2] (Table 2, dual compounds), more than 3000 nM.

As to `CNCC[C@H](Oc1ccc(CN2CCN(C)c3ncc(F)cc3C2=O)c(F)c1)c1ccccc1` [Example 143, (S)-7-fluoro-4-(2-fluoro-4-(3-(methylamino)-1-phenylpropoxy)benzyl)-1-methyl-1,2,3,4-tetrahydro-5H-pyrido[2,3-e][1,4]diazepin-5-one], the Ki in assay [1] is less than 100 nM; in assay [2] (Table 1) it was 100 to 500 nM; in assay [2] (Table 2, dual compounds) it was 100 to 500 nM.

The values are drawn from patent US11401270B2, “Alcoxyamino derivatives for treating pain and pain related conditions” (ESTEVE PHARMACEUTICALS, S.A., priority 2017, dated 2022).
